Reference: patent publication US20240277585A1, “COMPOSITION OF LIPID NANOPARTICLE CONTAINING VITIS VINIFERA EXTRACT, COSMETIC USES OF A COMPOSITION OF LIPID NANOPARTICLE CONTAINING VITIS VINIFERA EXTRACT, ANTIOXIDANT DERMOCOSMETIC PRODUCT AND FOR PREVENTING SKIN AGING AND SKIN CARE METHOD” (ACHÉ LABORATÓRIOS FARMACÊUTICOS S.A., priority 2021, published 2024)

Columns and labels:
Type in all cases: biochemical
elastase = assay: Activity of the elastase enzyme
Experimental: (§1) The anti-aging effect of the composition of the first aspect was determined by the methods that measure the activity of the elastase enzyme and the activity of the metalloproteases (MMP) enzyme.

MMP 1 = biological target: T1, MMP 1 (Homo sapiens, UniProt P03956); assay: Activity of the metalloproteases (MMP) enzyme
T1 sequence (P03956 100-469): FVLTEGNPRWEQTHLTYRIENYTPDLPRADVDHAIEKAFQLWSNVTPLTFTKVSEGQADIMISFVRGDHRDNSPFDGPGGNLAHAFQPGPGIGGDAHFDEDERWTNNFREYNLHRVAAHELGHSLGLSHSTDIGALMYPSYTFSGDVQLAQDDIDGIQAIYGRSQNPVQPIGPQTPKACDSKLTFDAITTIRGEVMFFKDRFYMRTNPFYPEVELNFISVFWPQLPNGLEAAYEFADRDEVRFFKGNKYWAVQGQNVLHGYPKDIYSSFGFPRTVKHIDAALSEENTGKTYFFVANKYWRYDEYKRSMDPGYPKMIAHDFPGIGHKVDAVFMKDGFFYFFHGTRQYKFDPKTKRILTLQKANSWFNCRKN
Experimental: as §1

MMP 3 = MMP 3 (Homo sapiens, UniProt P08254); assay: Activity of the metalloproteases (MMP) enzyme
Experimental: as §1

MMP 12 = MMP 12 (Homo sapiens, UniProt P39900); assay: Activity of the metalloproteases (MMP) enzyme
Experimental: as §1

Sequence of MMP 3 (P08254 100-477): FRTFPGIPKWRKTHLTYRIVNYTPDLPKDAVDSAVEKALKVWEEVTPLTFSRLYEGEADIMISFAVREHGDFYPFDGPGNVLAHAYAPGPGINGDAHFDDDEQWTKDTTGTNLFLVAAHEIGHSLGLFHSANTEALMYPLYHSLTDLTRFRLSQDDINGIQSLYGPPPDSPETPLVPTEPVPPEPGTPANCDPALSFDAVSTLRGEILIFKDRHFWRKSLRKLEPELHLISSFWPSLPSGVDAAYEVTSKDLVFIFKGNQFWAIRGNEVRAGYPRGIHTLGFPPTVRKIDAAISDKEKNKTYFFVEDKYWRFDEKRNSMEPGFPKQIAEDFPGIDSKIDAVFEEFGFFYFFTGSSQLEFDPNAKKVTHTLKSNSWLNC
Sequence of MMP 12 (P39900 106-470): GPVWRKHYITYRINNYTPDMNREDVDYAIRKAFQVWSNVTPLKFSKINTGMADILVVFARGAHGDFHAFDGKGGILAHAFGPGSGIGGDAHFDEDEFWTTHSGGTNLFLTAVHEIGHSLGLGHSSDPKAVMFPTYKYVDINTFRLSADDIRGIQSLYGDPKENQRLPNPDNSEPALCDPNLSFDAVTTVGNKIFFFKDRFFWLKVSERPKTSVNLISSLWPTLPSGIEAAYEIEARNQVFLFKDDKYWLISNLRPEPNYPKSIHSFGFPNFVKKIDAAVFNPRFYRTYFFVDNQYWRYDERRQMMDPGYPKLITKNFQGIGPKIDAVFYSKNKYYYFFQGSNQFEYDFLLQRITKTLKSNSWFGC

Inhibition of the activity of elastase (elastase) | Inhibition of the activity of MMP 1 (MMP 1) | Inhibition of the activity of MMP 3 (MMP 3) | Inhibition of the activity of MMP 12 (MMP 12) | Molecule
do not present such result | do not present this result | do not present this result | do not present this result | O=C1O[C@H]([C@@H](O)CO)C(O)=C1O [Vitamin C]
do not present such result | do not present this result | do not present this result | do not present this result | Vitamin E
